Active and inactive are the calls of the source. The rule behind the calls is not given here.
Assays:
[1] = system: Cortical neurone; assay: Neuroprotection in mouse embryonic cortical neurons assessed as reduction in glucose deprivation-induced cell death; assay type: functional, cell-based
[2] = system: Cortical neurone; assay: Cytotoxicity against mouse embryonic cortical neurons assessed as reduction in cell viability; assay type: cell-based
[3] = system: Cortical neurone; assay: Neuroprotection in mouse embryonic cortical neurons assessed as reduction in oxygen and glucose deprivation-induced cell death; assay type: functional, cell-based

Structure (SMILES)	Activity [1]	Activity [2]	Activity [3]
CCCCCC/C=C/[C@@H]1[C@H]2CC(CCCCC(=O)O)=C[C@H]2C[C@H]1O	inactive	Toxic	inactive
CCCCC[C@H](O)/C=C/[C@@H]1[C@H]2CC(CCCCC(=O)O)=C[C@H]2C[C@H]1O	inactive	Toxic	inactive
C=C[C@@H]1[C@H]2CC(CCCCC(=O)O)=C[C@H]2C[C@H]1O	inactive	Toxic	inactive
CCCCCCCCCC/C=C/[C@@H]1[C@H]2CC(CCCCC(=O)O)=C[C@H]2C[C@H]1O	inactive	Toxic	inactive
O=C(O)CCCCC1=C[C@H]2C[C@@H](O)[C@H](/C=C/Cc3ccccc3)[C@H]2C1	inactive	Toxic	inactive

Source: ChEMBL document CHEMBL4308902, “Synthetic approaches to isocarbacyclin and analogues as potential neuroprotective agents against ischemic stroke” (Bioorg Med Chem, 2019)
